Test results published in the NIST ThermoML archive (doi:10.1021/acs.jced.5b00934).
± gives the expanded uncertainty stated by the source.

Details: Liquid, Vibrating tube method

CCC(C)O (stereo not drawn) [butan-2-ol]
Details | mass density [kg/m3]
303.15 K, 20032 kPa | 813.3 ± 0.9
303.15 K, 21980 kPa | 814.6 ± 0.9
303.15 K, 25089 kPa | 816.7 ± 0.9
303.15 K, 27989 kPa | 818.6 ± 0.9
303.15 K, 30014 kPa | 819.9 ± 0.9
303.15 K, 32951 kPa | 821.7 ± 0.9
303.15 K, 33007 kPa | 821.7 ± 0.9
303.15 K, 33998 kPa | 822.3 ± 0.9
303.15 K, 38048 kPa | 824.8 ± 0.9
303.15 K, 40020 kPa | 826 ± 0.9
303.15 K, 42004 kPa | 827.1 ± 0.9
303.15 K, 44999 kPa | 828.9 ± 0.9
303.15 K, 45386 kPa | 829.1 ± 0.9
303.15 K, 48182 kPa | 830.7 ± 0.9
303.15 K, 50063 kPa | 831.8 ± 1
303.15 K, 51975 kPa | 832.8 ± 1
303.16 K, 469 kPa | 798.5 ± 0.8
303.16 K, 7034 kPa | 803.7 ± 0.8
303.16 K, 9943 kPa | 806 ± 0.9
303.16 K, 11919 kPa | 807.5 ± 0.9
303.16 K, 15070 kPa | 809.8 ± 0.9
303.16 K, 31992 kPa | 821.1 ± 0.9
303.16 K, 35073 kPa | 823 ± 0.9
303.16 K, 55053 kPa | 834.5 ± 1
303.16 K, 57971 kPa | 836.1 ± 1
303.16 K, 59945 kPa | 837.1 ± 1
303.16 K, 62023 kPa | 838.2 ± 1
303.16 K, 64910 kPa | 839.7 ± 1
303.16 K, 66100 kPa | 840.3 ± 1
308.15 K, 99 kPa | 793.9 ± 0.8
308.15 K, 284 kPa | 794.1 ± 0.8
308.15 K, 499 kPa | 794.3 ± 0.8
308.15 K, 1030 kPa | 794.8 ± 0.8
308.15 K, 2012 kPa | 795.6 ± 0.8
308.15 K, 3016 kPa | 796.4 ± 0.8
308.15 K, 10011 kPa | 802 ± 0.9
308.15 K, 17937 kPa | 808 ± 0.9
308.15 K, 31948 kPa | 817.5 ± 0.9
308.15 K, 32957 kPa | 818.2 ± 0.9
308.15 K, 33017 kPa | 818.2 ± 0.9
308.15 K, 34003 kPa | 818.8 ± 0.9
308.15 K, 38001 kPa | 821.3 ± 0.9
308.15 K, 45022 kPa | 825.5 ± 0.9
308.15 K, 50010 kPa | 828.4 ± 1
308.15 K, 52016 kPa | 829.5 ± 1
308.15 K, 54994 kPa | 831.2 ± 1
308.15 K, 58005 kPa | 832.8 ± 1
308.15 K, 60029 kPa | 833.9 ± 1
308.16 K, 919 kPa | 794.6 ± 0.8
308.16 K, 5009 kPa | 798.1 ± 0.8
308.16 K, 7020 kPa | 799.7 ± 0.8
308.16 K, 9036 kPa | 801.3 ± 0.8
308.16 K, 11963 kPa | 803.6 ± 0.9
308.16 K, 15014 kPa | 805.8 ± 0.9
308.16 K, 19942 kPa | 809.4 ± 0.9
308.16 K, 22125 kPa | 810.9 ± 0.9
308.16 K, 25007 kPa | 813 ± 0.9
308.16 K, 28001 kPa | 815 ± 0.9
308.16 K, 30046 kPa | 816.3 ± 0.9
308.16 K, 35061 kPa | 819.4 ± 0.9
308.16 K, 40051 kPa | 822.5 ± 0.9
308.16 K, 41974 kPa | 823.7 ± 0.9
308.16 K, 47997 kPa | 827.2 ± 0.9
308.16 K, 61986 kPa | 835 ± 1
308.16 K, 64977 kPa | 836.6 ± 1
308.16 K, 66129 kPa | 837.2 ± 1
313.15 K, 97 kPa | 789.4 ± 0.8
313.15 K, 331 kPa | 789.6 ± 0.8
313.15 K, 521 kPa | 789.8 ± 0.8
313.15 K, 925 kPa | 790.2 ± 0.8
313.15 K, 1936 kPa | 791 ± 0.8
313.15 K, 2964 kPa | 791.9 ± 0.8
313.15 K, 10109 kPa | 797.8 ± 0.9
313.15 K, 12051 kPa | 799.4 ± 0.9
313.15 K, 22039 kPa | 806.9 ± 0.9
313.15 K, 24988 kPa | 809 ± 0.9
313.15 K, 27962 kPa | 811 ± 0.9
313.15 K, 30012 kPa | 812.4 ± 0.9
313.15 K, 32043 kPa | 813.7 ± 0.9
313.15 K, 33039 kPa | 814.4 ± 0.9
313.15 K, 33084 kPa | 814.4 ± 0.9
313.15 K, 37907 kPa | 817.5 ± 0.9
313.15 K, 42039 kPa | 820 ± 0.9
313.15 K, 50005 kPa | 824.8 ± 1
313.15 K, 58031 kPa | 829.3 ± 1
313.16 K, 1053 kPa | 790.3 ± 0.8
313.16 K, 5002 kPa | 793.7 ± 0.8
313.16 K, 6986 kPa | 795.3 ± 0.8
313.16 K, 8976 kPa | 797 ± 0.8
313.16 K, 14996 kPa | 801.7 ± 0.9
313.16 K, 17980 kPa | 803.9 ± 0.9
313.16 K, 20012 kPa | 805.4 ± 0.9
313.16 K, 34096 kPa | 815 ± 0.9
313.16 K, 35045 kPa | 815.6 ± 0.9
313.16 K, 40135 kPa | 818.9 ± 0.9
313.16 K, 45006 kPa | 821.8 ± 0.9
313.16 K, 48081 kPa | 823.7 ± 1
313.16 K, 52025 kPa | 826 ± 1
313.16 K, 55030 kPa | 827.7 ± 1
313.16 K, 60001 kPa | 830.4 ± 1
313.16 K, 62068 kPa | 831.6 ± 1
313.16 K, 65053 kPa | 833.2 ± 1
313.16 K, 66058 kPa | 833.7 ± 1
318.15 K, 102 kPa | 784.8 ± 0.8
318.15 K, 288 kPa | 785 ± 0.8
318.15 K, 909 kPa | 785.5 ± 0.8
318.15 K, 9293 kPa | 792.8 ± 0.9
318.15 K, 12039 kPa | 795.1 ± 0.9
318.15 K, 14977 kPa | 797.4 ± 0.9
318.15 K, 17998 kPa | 799.8 ± 0.9
318.15 K, 20024 kPa | 801.3 ± 0.9
318.15 K, 24907 kPa | 804.9 ± 0.9
318.15 K, 27973 kPa | 807.1 ± 0.9
318.15 K, 30001 kPa | 808.5 ± 0.9
318.15 K, 32873 kPa | 810.4 ± 0.9
318.15 K, 33033 kPa | 810.4 ± 0.9
318.15 K, 45210 kPa | 818.3 ± 0.9
318.15 K, 48072 kPa | 820.1 ± 1
318.15 K, 49996 kPa | 821.2 ± 1
318.15 K, 57926 kPa | 825.8 ± 1
318.16 K, 476 kPa | 785.1 ± 0.8
318.16 K, 1004 kPa | 785.6 ± 0.8
318.16 K, 1987 kPa | 786.5 ± 0.8
318.16 K, 3033 kPa | 787.4 ± 0.8
318.16 K, 5011 kPa | 789.2 ± 0.8
318.16 K, 6978 kPa | 790.9 ± 0.8
318.16 K, 10006 kPa | 793.4 ± 0.9
318.16 K, 22040 kPa | 802.8 ± 0.9
318.16 K, 32063 kPa | 809.9 ± 0.9
318.16 K, 33988 kPa | 811.1 ± 0.9
318.16 K, 34997 kPa | 811.8 ± 0.9
318.16 K, 38029 kPa | 813.7 ± 0.9
318.16 K, 39963 kPa | 815 ± 0.9
318.16 K, 42133 kPa | 816.4 ± 0.9
318.16 K, 51984 kPa | 822.4 ± 1
318.16 K, 54987 kPa | 824.1 ± 1
318.16 K, 60004 kPa | 827 ± 1
318.16 K, 62005 kPa | 828.1 ± 1
318.16 K, 65012 kPa | 829.7 ± 1
318.16 K, 66081 kPa | 830.3 ± 1
323.15 K, 539 kPa | 780.5 ± 0.8
323.15 K, 1027 kPa | 781 ± 0.8
323.15 K, 5007 kPa | 784.7 ± 0.8
323.15 K, 7056 kPa | 786.5 ± 0.8
323.15 K, 9085 kPa | 788.3 ± 0.9
323.15 K, 10245 kPa | 789.3 ± 0.9
323.15 K, 12118 kPa | 790.8 ± 0.9
323.15 K, 15027 kPa | 793.2 ± 0.9
323.15 K, 18033 kPa | 795.6 ± 0.9
323.15 K, 20133 kPa | 797.2 ± 0.9
323.15 K, 25015 kPa | 800.9 ± 0.9
323.15 K, 28096 kPa | 803.1 ± 0.9
323.15 K, 33113 kPa | 806.7 ± 0.9
323.15 K, 37980 kPa | 809.9 ± 0.9
323.15 K, 40058 kPa | 811.2 ± 0.9
323.15 K, 42026 kPa | 812.5 ± 0.9
323.15 K, 50034 kPa | 817.5 ± 1
323.15 K, 52055 kPa | 818.7 ± 1
